Measured values reported in the NIST ThermoML archive (doi:10.1007/s10765-006-0056-z).

Test: molar heat capacity at constant volume; xn = mol fraction of the nth substance listed
Settings: Fluid (supercritical or subcritical phases), Isochoric Heat Capacity Apparatus

CCCCCCCCCC [decane] + O=C=O
Settings | molar heat capacity at constant volume [J/K/mol]
485.62 K, Mass density=375 kg/m3, x1 = 0.178 | 481.74
486.19 K, Mass density=374.7 kg/m3, x1 = 0.095 | 337.46
486.48 K, Mass density=201.8 kg/m3, x1 = 0.095 | 412.09
486.76 K, Mass density=375 kg/m3, x1 = 0.178 | 484.88
486.96 K, Mass density=131.5 kg/m3, x1 = 0.095 | 529.99
486.96 K, Mass density=201.8 kg/m3, x1 = 0.095 | 409.43
487.15 K, Mass density=155 kg/m3, x1 = 0.095 | 472.85
487.15 K, Mass density=201.8 kg/m3, x1 = 0.095 | 398.22
487.34 K, Mass density=155 kg/m3, x1 = 0.095 | 461.86
487.53 K, Mass density=155 kg/m3, x1 = 0.095 | 453.38
487.72 K, Mass density=155 kg/m3, x1 = 0.095 | 442.23
487.96 K, Mass density=155 kg/m3, x1 = 0.095 | 446.71
488.19 K, Mass density=155 kg/m3, x1 = 0.095 | 447.14
488.49 K, Mass density=176.7 kg/m3, x1 = 0.095 | 436.9
488.58 K, Mass density=176.7 kg/m3, x1 = 0.095 | 427.94
488.68 K, Mass density=176.7 kg/m3, x1 = 0.095 | 434.18
488.82 K, Mass density=339.4 kg/m3, x1 = 0.178 | 500.32
488.87 K, Mass density=176.7 kg/m3, x1 = 0.095 | 431.72
489.06 K, Mass density=176.7 kg/m3, x1 = 0.095 | 425.91
489.44 K, Mass density=339.4 kg/m3, x1 = 0.178 | 498.78
490.01 K, Mass density=408.8 kg/m3, x1 = 0.178 | 466.06
490.58 K, Mass density=398.3 kg/m3, x1 = 0.095 | 337.25
491.54 K, Mass density=281.4 kg/m3, x1 = 0.095 | 350.21
493.44 K, Mass density=339.4 kg/m3, x1 = 0.178 | 492.82
493.44 K, Mass density=375 kg/m3, x1 = 0.178 | 478.92
493.63 K, Mass density=320.2 kg/m3, x1 = 0.095 | 344.98
494.29 K, Mass density=339.4 kg/m3, x1 = 0.178 | 493.86
494.39 K, Mass density=375 kg/m3, x1 = 0.178 | 481.74
494.76 K, Mass density=87 kg/m3, x1 = 0.095 | 750.57
494.95 K, Mass density=374.7 kg/m3, x1 = 0.095 | 342.85
495.33 K, Mass density=176.7 kg/m3, x1 = 0.095 | 423.94
495.52 K, Mass density=241 kg/m3, x1 = 0.095 | 368.51
495.52 K, Mass density=408.8 kg/m3, x1 = 0.178 | 468.89
496.56 K, Mass density=131.5 kg/m3, x1 = 0.095 | 548.39
497.42 K, Mass density=310.8 kg/m3, x1 = 0.178 | 516
497.51 K, Mass density=310.8 kg/m3, x1 = 0.178 | 512.93
497.6 K, Mass density=310.8 kg/m3, x1 = 0.178 | 514.22
499.87 K, Mass density=110.8 kg/m3, x1 = 0.095 | 615.07
499.87 K, Mass density=155 kg/m3, x1 = 0.095 | 463.68
500.06 K, Mass density=375 kg/m3, x1 = 0.178 | 479.47
500.9 K, Mass density=310.8 kg/m3, x1 = 0.178 | 505.18
500.9 K, Mass density=398.3 kg/m3, x1 = 0.095 | 339.7
501.75 K, Mass density=310.8 kg/m3, x1 = 0.178 | 507.27
502.88 K, Mass density=408.8 kg/m3, x1 = 0.178 | 473.26
503.07 K, Mass density=339.4 kg/m3, x1 = 0.178 | 489.49
503.82 K, Mass density=339.4 kg/m3, x1 = 0.178 | 492.32
504.88 K, Mass density=284.3 kg/m3, x1 = 0.178 | 533.78
505.5 K, Mass density=201.8 kg/m3, x1 = 0.095 | 397.32
505.96 K, Mass density=284.3 kg/m3, x1 = 0.178 | 524.24
506.25 K, Mass density=374.7 kg/m3, x1 = 0.095 | 343.97
506.32 K, Mass density=284.3 kg/m3, x1 = 0.178 | 521.66
507.56 K, Mass density=320.2 kg/m3, x1 = 0.095 | 346.42
508.72 K, Mass density=284.3 kg/m3, x1 = 0.178 | 513.42
509.65 K, Mass density=284.3 kg/m3, x1 = 0.178 | 513.42
512.22 K, Mass density=339.4 kg/m3, x1 = 0.178 | 488.69
512.4 K, Mass density=241 kg/m3, x1 = 0.095 | 370.11
512.96 K, Mass density=339.4 kg/m3, x1 = 0.178 | 489.49
513.52 K, Mass density=155 kg/m3, x1 = 0.095 | 469.92
513.7 K, Mass density=176.7 kg/m3, x1 = 0.095 | 436.2
514.1 K, Mass density=110.8 kg/m3, x1 = 0.095 | 628.94
515.19 K, Mass density=281.4 kg/m3, x1 = 0.095 | 353.36
515.37 K, Mass density=398.3 kg/m3, x1 = 0.095 | 347.33
515.86 K, Mass density=131.5 kg/m3, x1 = 0.095 | 553.72
516.11 K, Mass density=87 kg/m3, x1 = 0.095 | 740.97
516.76 K, Mass density=83.3 kg/m3, x1 = 0.178 | 975.91
517.48 K, Mass density=83.3 kg/m3, x1 = 0.178 | 984.15
517.59 K, Mass density=374.7 kg/m3, x1 = 0.095 | 348.19
517.68 K, Mass density=310.8 kg/m3, x1 = 0.178 | 496.69
518.51 K, Mass density=310.8 kg/m3, x1 = 0.178 | 499.76
519.25 K, Mass density=155 kg/m3, x1 = 0.095 | 471.73
520.73 K, Mass density=117.8 kg/m3, x1 = 0.178 | 788.7
521.28 K, Mass density=110.8 kg/m3, x1 = 0.095 | 622.54
522.57 K, Mass density=320.2 kg/m3, x1 = 0.095 | 352.88
523.12 K, Mass density=281.4 kg/m3, x1 = 0.095 | 355.33
523.67 K, Mass density=164.2 kg/m3, x1 = 0.178 | 675.66
524.03 K, Mass density=164.2 kg/m3, x1 = 0.178 | 667.67
524.03 K, Mass density=201.8 kg/m3, x1 = 0.095 | 397.1
524.22 K, Mass density=320.2 kg/m3, x1 = 0.095 | 351.33
524.4 K, Mass density=164.2 kg/m3, x1 = 0.178 | 659.98
524.77 K, Mass density=83.3 kg/m3, x1 = 0.178 | 982.86
526.6 K, Mass density=117.8 kg/m3, x1 = 0.178 | 779.17
528.43 K, Mass density=117.8 kg/m3, x1 = 0.178 | 775.54
529.61 K, Mass density=164.2 kg/m3, x1 = 0.178 | 637.53
529.71 K, Mass density=117.8 kg/m3, x1 = 0.178 | 768.84
530.07 K, Mass density=164.2 kg/m3, x1 = 0.178 | 636.24
530.25 K, Mass density=241 kg/m3, x1 = 0.095 | 375.44
530.62 K, Mass density=164.2 kg/m3, x1 = 0.178 | 631.87
530.67 K, Mass density=339.4 kg/m3, x1 = 0.178 | 492.82
531.4 K, Mass density=339.4 kg/m3, x1 = 0.178 | 493.86
532.44 K, Mass density=374.7 kg/m3, x1 = 0.095 | 354.69
532.99 K, Mass density=87 kg/m3, x1 = 0.095 | 727.63
533.17 K, Mass density=117.8 kg/m3, x1 = 0.178 | 758.57
533.71 K, Mass density=155 kg/m3, x1 = 0.095 | 467.68
534.08 K, Mass density=117.8 kg/m3, x1 = 0.178 | 754.94
535.31 K, Mass density=131.5 kg/m3, x1 = 0.095 | 565.99
535.39 K, Mass density=83.3 kg/m3, x1 = 0.178 | 958.14
535.89 K, Mass density=164.2 kg/m3, x1 = 0.178 | 631.13
536.16 K, Mass density=83.3 kg/m3, x1 = 0.178 | 972.28
536.98 K, Mass density=83.3 kg/m3, x1 = 0.178 | 973.82
536.98 K, Mass density=110.8 kg/m3, x1 = 0.095 | 693.49
537.7 K, Mass density=320.2 kg/m3, x1 = 0.095 | 358.27
538.25 K, Mass density=281.4 kg/m3, x1 = 0.095 | 361.63
543.48 K, Mass density=201.8 kg/m3, x1 = 0.095 | 402.01
543.48 K, Mass density=310.8 kg/m3, x1 = 0.178 | 509.05
543.84 K, Mass density=176.7 kg/m3, x1 = 0.095 | 450.93
544.11 K, Mass density=310.8 kg/m3, x1 = 0.178 | 514.46
544.38 K, Mass density=284.3 kg/m3, x1 = 0.178 | 517.29
546.37 K, Mass density=117.8 kg/m3, x1 = 0.178 | 758.81
546.63 K, Mass density=83.3 kg/m3, x1 = 0.178 | 971.79
547.62 K, Mass density=83.3 kg/m3, x1 = 0.178 | 992.89
550.12 K, Mass density=87 kg/m3, x1 = 0.095 | 712.69
550.12 K, Mass density=320.2 kg/m3, x1 = 0.095 | 360.72
550.48 K, Mass density=281.4 kg/m3, x1 = 0.095 | 369.42
550.84 K, Mass density=155 kg/m3, x1 = 0.095 | 462.13
554.06 K, Mass density=164.2 kg/m3, x1 = 0.178 | 623.38
556.37 K, Mass density=131.5 kg/m3, x1 = 0.095 | 553.72
556.91 K, Mass density=83.3 kg/m3, x1 = 0.178 | 997.75
559.75 K, Mass density=241 kg/m3, x1 = 0.095 | 388.83
560.29 K, Mass density=281.4 kg/m3, x1 = 0.095 | 373.42
561.17 K, Mass density=176.7 kg/m3, x1 = 0.095 | 448.69
561.35 K, Mass density=320.2 kg/m3, x1 = 0.095 | 369.84
568.43 K, Mass density=241 kg/m3, x1 = 0.095 | 393.53
